Data reported in article PMC5338303, “Unveiling the Metabolic Changes on Muscle Cell Metabolism Underlying p-Phenylenediamine Toxicity” (Frontiers in Molecular Biosciences, 2017).
“And” between values parts separate entries of the source, which are not always exact repeats. Equal values may be shown once. Read-outs that look alike come from different tables or passages of the source.

Experiments:
[1] = test system: central carbon metabolic pathways of C2C12 cells; test: Mass isotopomer distribution analysis (MIDA) with [1,2-13C2]-glucose, GC/MS; assay type: cell-based, Mus musculus mouse
Experimental: To track and measure the substrate carbon flux through central carbon metabolic pathways of C2C12 cells when treated with PPD, mass isotopomer distribution analysis (MIDA), and metabolic modeling approaches were used.
(§1) Cells were cultured in DMEM (Biowithaker) °supplemented with 10% dialyzed heat-inactivated Fetal Bovine Serum (FBS), glucose (10 mM, 50% isotope enrichment [1,2-^13C2]-glucose), asparagine (20 mg/ml), penicillin (100 U/ml), and streptomycin (100 μg/ml). […] Initially each flask contained 10^6 cells and the incubation was carried out for 24 h. To separate medium and cell pellets, cells were centrifuged at the end of incubation (3000 × g, 5 min). Afterwards, pellet and medium were stored at −20°C for metabolite isolations.
• Glucose. A mixed DOWEX 50-DOWEX 1 ionic exchange column was used to corroborate that the original medium contained 50% of labeled glucose ([1,2-^13C2] D-glucose). First, 500 μl of medium and after 6 ml of milliQ water were passed through the column and were collected into a glass tube. Next, it was lyophilized for 12 h to eliminate the remaining liquid and the dried sample was stored. Finally, hydroxyl-amine in pyridine and acetic anhydride were used to derivatize glucose to its aldonitrile form. The ion cluster was set to m/z 328 (C1–C6, chemical ionization; Wamelink et al., [2008]). • Glycogen. Glycogen for biochemical and isotopomerics distribution determination was extracted as described in Burchert ([2007]), by direct digestion of sonicated extracts with amyloglucosidase. Measurement of glucose released from glycogen was done by using the isotopomer [U-13C6-1,2,3,4,5,6,6-D7]D-glucose (or [U-13C-D7]-glucose as shorter name) as recovery standard and internal standard quantification procedures. […] We monitored the ion cluster around the m/z 328 (C1–C6, chemical ionization; Wamelink et al., [2008]). • Lactate. […] Next, the m/z 328 was monitored (C1–C3, chemical ionization, Wamelink et al., [2008]). • Ribose from RNA. […]

C2C12 cells [2] = test: Biochemical characterization: glucose and lactate concentrations in culture medium; assay type: cell-based, Mus musculus mouse; details: PPD at IC50, 24 h
Experimental: Glucose and lactate concentrations were determined from culture medium at initial and end-time points by using Cobas Mira Plus chemistry analyzer (HORIBA ABX, Montpellier, France; Cisternas et al., [2016]).
as §1

C2C12 cells [3] = test: Annexin V-Fluorescein isothiocyanate binding assay (apoptosis); assay type: cell-based, Mus musculus mouse
From the text: This technique permits to determine whether a cell is at early or late apoptosis or necrotic state. In early apoptosis, Phosphatidylserine (PS) is translocated to the outer membrane allowing PS-annexin V-Fluorescein Isothiocyanate (FITC) binding. In late apoptosis, as well as in necrotic processes, cell membranes lose their integrity allowing PI to access the nucleus and bind the DNA bases. Next, by using FACS analysis one can determine PI and annexin V-FITC staining accumulation to differentiate non-apoptotic cells (PI– and annexin V–) from early apoptotic (PI− and annexin V+) and necrotic or late apoptotic (PI+) cells (Cortés et al., [2012]). The same amount of C2C12 cells mentioned for cell cycle assay was treated with PPD as previously described. Cells were then collected and resuspended in binding buffer (10 mM Hepes/NaOH, pH7.4, 140 mM NaCl, 2.5 mM CaCl2). Annexin V-FITC conjugate (1 μg/ml) was added and incubated for 30 min at room temperature in the dark. Just before FACS analysis [Bender medSystems (Innogenetics) human Annexin V-FITC Kit cat No. BMS306FI], cells were stained with 1 mg/ml PI solution. In each experiment ~20 × 10^3 cells per condition were analyzed and the experiment was performed five times.

C2C12 cells [4] = test: Cell viability assay (MTT); assay type: cell-based, Mus musculus mouse; details: for IC50: read-out: IC50 (cell proliferation, MTT); for IC80: read-out: IC80 (cell proliferation, MTT)
Experimental: C2C12 cells from Mus musculus mouse were cultured in DMEM (Dulbecco's Modified Eagle's medium) with 10 mg/ml of streptomycin, 2 mM glutamine, 10,000 units/ml of penicillin and 10% heat-inactivated FCS, until subconfluence was reached. For biochemical characterization, C2C12 cells were cultured in DMEM, supplemented with 4 mM asparagine without glutamine, 10 mg/ml of streptomycin, 10,000 units/ml of penicillin and 10% heat-inactivated FCS.
The absorbance of MTT [3-(4,5-Dimethylthiazol-2-Yl)-2,5-Diphenyltetrazolium Bromide] dye staining of living cells was used to determine cell viability (Pachon et al., [2007]; Pachón et al., [2008]). Here, 3.5 × 10^3 C2C12 cells/well were cultured in 96 well-plates at different PPD concentrations (from 1 to 100 μg/ml). An ELISA plate reader (Tecan Sunrise MR20-301, TECAN, Austria) was used to determine the relative cell viability, the absorbance was determined at 550 nm. Cell survival rate relative to untreated cells after 24 h of treatment was used to estimate the concentrations that caused 50% (IC50) and 80% (IC80) of inhibition of C2C12 at that time.

Wistar female rats [5] = test: Toxicity after oral administration; general appearance, behavior and signs of morbidity (Irwin test); assay type: in vivo, rat; parameters: key to Myoglobiunuria: ++ represents the presence of myoglobinuria; details: for Ataxic Gait / Hypotonic Gait: animals affected/group; for Hipoactivity / Piloerection: duration
Experimental: The study was approved by the Ethics Committee on Animal Experimentation of University of Navarra. Wistar female rats, with a body weight of 160 g ± 20% (8 weeks old), were supplied by Harlan (Harlan Laboratories, Indianapolis, IN). The animals were housed in polycarbonate cages with stainless steel covers in a room under controlled temperature conditions (22 ± 3°C), controlled relative humidity (50 ± 20%) and light (12 h light–dark cycle). Air was exchanged 15 times/h sterile food supplied by Harlan (Harlan Laboratories, Indianapolis, IN) and controlled water was available ad libitum. The rats were housed in the study room for 5 days prior to the beginning of treatment in order to allow acclimatization to the environmental conditions. Finally, three rats were randomly assigned to each studied group corresponding to different PPD doses (10, 20, 40, and 60 mg/Kg) and control (DMSO).
(§2) The animals were divided into groups of three rats at random. A control group receiving the vehicle and four groups receiving PPD at several concentrations 10, 20, 40, and 60 mg/kg at single dose were included (Figure 1). The compound was administered in a volume of 300 μl of 100% DMSO by gavage. Animals were evaluated based on general appearance, behavior and signs of morbidity using the Irwin test (Castagné et al., [2012]), immediately following administration, 30 min, 1, 2, 4, and 8 h after the administration (Figure 1). All of the animals were weighed just before the acclimatization period, before administration and 24, 48, and 72 h after administration. At the end of the observation period (24, 48, and 72 h after administration), all the animals were anesthetized and blood samples were collected from tail and retro orbital sinus and centrifuged at 2000 × g for 30 min at 4°C to recover the serum (Figure 1). The serum was frozen and stored at −20°C until determination of biochemical parameters such as urea, creatinin, Glucose, aspartate aminotransferase (AST), alanine aminotransferase (ALT) and creatine kinase (CK), lactate dehydrogenase (LDH), at 24, 48, and 72 h before sacrificed in a CO2 chamber and autopsied. All of the tissues were observed grossly. Ovaries, kidneys, liver, spleen, heart, and lung were weighed and the relative organ weights were calculated. Serum CK and LDH levels were measured.

Wistar female rats [6] = test: Blood packed cell volume, hemoglobin, organ weights and histology; assay type: in vivo, rat
Experimental: as §2

Wistar female rats [7] = test: Serum biochemical parameters (AST, ALT, CK, LDH); assay type: in vivo, rat; details: 40 and 60 mg/kg
Experimental: as §2

C2C12 cells [8] = test: Cell cycle analysis (FACS, propidium iodide); assay type: cell-based, Mus musculus mouse; details: vs untreated cells
Experimental: Cell cycle was evaluated by measuring FACS (fluorescence-activated cell sorter) in an Epics XL flow cytometer at 488 nm (Coulter Corporation, Hialeah, FL, USA). This technique allows for the semiquantitation of DNA in each cell and permits to separate cells in G0 or G1 phase (one copy of DNA), G2 or M phase (after DNA duplication) and S phase (the amount of DNA per cell is in an intermediate state between the two previous conditions). For these measurements, C2C12 cells were cultivated in 6 well-plates (4 × 10^5 cells/well each) with 2 ml of culture medium. After 24 h of plated, PPD corresponding to IC50 and IC80 concentrations was added and cells were incubated for 24 h, in parallel, control C2C12 cells were cultured without PPD. All experiments were performed five times with two replicates for each experiment.

Q: How did the total glycogen reservoirs ([1]; 24 h, no significant differences between groups) turn out when `Nc1ccc(N)cc1` [PPD, p-phenylenediamine] was run?
A: 10,1 μg

Q: And the “Glycolitic rate = [Δlactate × m2lactate]/[Δglucose × m2glucose]” value ([1]; PPD at IC50, 24 h, not significantly different from control)?
A: 28,8 ± 14%

Q: What about the “ox/non-ox ratio of pentose-phosphate pathway = m1 + m3 / (m2 + m3 + 2m4)” value ([1]; RNA ribose, PPD at IC50, 24 h) of the same molecule?
A: 2,224 ± 0,189 and 2.224 ± 0.189

Q: And the “glucose consumption (Δglucose)” value (C2C12 cells [2])?
A: 2,42 ± 0,26 mM

Q: What about the “lactate production (Δlactate)” value (C2C12 cells [2]) of the same molecule?
A: 1,5 ± 0,3 mM

Q: What about the early apoptosis (C2C12 cells [3]; PPD at IC50, 24 h) of the same molecule?
A: 34.7%

Q: And the late apoptosis (C2C12 cells [3]; PPD at IC50, 24 h)?
A: 18.8%

Q: What about the early apoptosis (C2C12 cells [3]; PPD at IC80, 24 h) of the same molecule?
A: 20.1%

Q: What about the late apoptosis (C2C12 cells [3]; PPD at IC80, 24 h) of the same molecule?
A: 23.9%

Q: And the IC50 (C2C12 cells [4]; C2C12, 24 h)?
A: 154 µM

Q: And the IC80 (C2C12 cells [4]; C2C12, 24 h)?
A: 201 ± 8 µM

Q: What about the IC50 (C2C12 cells [4]; C2C12, 48 h) of the same molecule?
A: 108 ± 8 µM

Q: And the IC80 (C2C12 cells [4]; C2C12, 48 h)?
A: 182 ± 12 µM

Q: And the IC50 (C2C12 cells [4]; C2C12, 72 h)?
A: 59 ± 1 µM

Q: What about the IC80 (C2C12 cells [4]; C2C12, 72 h) of the same molecule?
A: 91 ± 7 µM

Q: And the Myoglobiunuria (Wistar female rats [5]; 10 mg/kg single oral dose)?
A: ++

Q: What about the “Ataxic Gait” value (Wistar female rats [5]; 10 mg/kg single oral dose) of the same molecule?
A: 0/3

Q: And the “Hypotonic Gait” value (Wistar female rats [5]; 10 mg/kg single oral dose)?
A: 0/3

Q: And the Hipoactivity (Wistar female rats [5]; 10 mg/kg single oral dose)?
A: 10 h

Q: What about the Piloerection (Wistar female rats [5]; 10 mg/kg single oral dose) of the same molecule?
A: 2 to 4 h

Q: And the Myoglobiunuria (Wistar female rats [5]; 20 mg/kg single oral dose)?
A: ++

Q: And the “Ataxic Gait” value (Wistar female rats [5]; 20 mg/kg single oral dose)?
A: 0/3

Q: What about the “Hypotonic Gait” value (Wistar female rats [5]; 20 mg/kg single oral dose) of the same molecule?
A: 0/3

Q: What about the Hipoactivity (Wistar female rats [5]; 20 mg/kg single oral dose) of the same molecule?
A: 10 h

Q: What about the Piloerection (Wistar female rats [5]; 20 mg/kg single oral dose) of the same molecule?
A: 2 to 4 h

Q: What about the Hipoactivity (Wistar female rats [5]; 40 mg/kg single oral dose) of the same molecule?
A: 24 h

Q: And the Piloerection (Wistar female rats [5]; 40 mg/kg single oral dose)?
A: Until death

Q: And the “Ataxic Gait” value (Wistar female rats [5]; 60 mg/kg single oral dose)?
A: 0/3

Q: What about the “Hypotonic Gait” value (Wistar female rats [5]; 60 mg/kg single oral dose) of the same molecule?
A: 3/3

Q: And the Hipoactivity (Wistar female rats [5]; 60 mg/kg single oral dose)?
A: 48 h

Q: What about the Piloerection (Wistar female rats [5]; 60 mg/kg single oral dose) of the same molecule?
A: Until death

Q: What about the gait (Wistar female rats [5]; 60 mg/kg, after 48 h, disappeared after 72 h) of the same molecule?
A: ataxic gait

Q: And the “signs observed at lower doses” value (Wistar female rats [5]; 10 and 20 mg/kg, until 10 h of treatment)?
A: depressed activity and some of they had brown color urine or myoglobinuria

Q: What about the “signs observed at higher doses” value (Wistar female rats [5]; 40 and 60 mg/kg, until 4 h of treatment) of the same molecule?
A: total loss of equilibrium, hypotonic gait and piloerection

Q: What about the urine color (Wistar female rats [5]; after 24 h of treatment, disappears at 48 and 72 h) of the same molecule?
A: all animals had urine brown color but in absence of hematuria

Q: And the “evolution of body weight” value (Wistar female rats [5]; all groups, 10-60 mg/kg, up to 72 h)?
A: normal

Q: What about the “persistence of muscular weakness” value (Wistar female rats [5]; rat, in vivo) of the same molecule?
A: 3 days

Q: And the organs weight (Wistar female rats [6]; 48 and 72 h, any condition)?
A: No significant differences

Q: And the “Blood packed cell volume” value (Wistar female rats [6]; any condition (10-60 mg/kg))?
A: No significant differences

Q: And the hemoglobin levels (Wistar female rats [6]; any condition (10-60 mg/kg))?
A: No significant differences

Q: What about the “Histological analysis of extracted organs” value (Wistar female rats [6]; vs controls) of the same molecule?
A: patterns similar to controls

Q: And the ALT in serum (Wistar female rats [7]; 24, 48 and 72 h)?
A: increased

Q: What about the AST in serum (Wistar female rats [7]; 24, 48 and 72 h) of the same molecule?
A: increased

Q: And the CK in serum (Wistar female rats [7]; 24 h)?
A: increased

Q: And the LDH in serum (Wistar female rats [7]; 24 h)?
A: increased

Q: What about the “decrease in the percentage of cells in G0/G1 phases” value (C2C12 cells [8]; PPD at IC50, 24 h) of the same molecule?
A: 19%

Q: And the “increase in the population in S phase” value (C2C12 cells [8]; PPD at IC50, 24 h)?
A: 13%

Q: What about the “decrease in the percentage of cells in G0/G1 phases” value (C2C12 cells [8]; PPD at IC80, 24 h) of the same molecule?
A: 32%

Q: And the “increase in the population in S phase” value (C2C12 cells [8]; PPD at IC80, 24 h)?
A: 28%
